Assay results as given in the supplement of paper PMC8024199.
± gives the standard deviation of the averaged measurements.

Columns and labels:
Test in all cases: drug sensitivity score (DSS) (DSS score); higher = more sensitive (stronger growth inhibition); extreme values may be limits of the assay
[1] = test system: Mye-BP RUNX1 p.R107C
Procedure: (§1)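 Ex vivo drug sensitivity and resistance testing of primary bone marrow mononuclear cells from blast-phase CML patients (RUNX1-mutated and RUNX1 wild-type) against an oncology drug library. Each drug was tested at five concentrations over a 10,000-fold range, with viability normalised to DMSO controls. The drug sensitivity score (DSS) was computed from the dose-response curve.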

[2] = test system: My-BP RUNX1 wild-4
Procedure: as §1

[3] = test system: Ly-BP RUNX1 p.R204Q
Procedure: as §1

[4] = test system: My-BP RUNX1 wild-2
Procedure: as §1

[5] = test system: Mye-BP RUNX1 p.R162K
Procedure: as §1

[6] = test system: Ly-BP RUNX1 wild-1
Procedure: as §1

[7] = test system: Mye-BP RUNX1 p.K117*
Procedure: as §1

[8] = test system: My-BP RUNX1 wild-3
Procedure: as §1

[9] = test system: Ba/F3 P210-BCR-ABL1 RUNX1wt/wt control (mouse)
Method in brief: (§2)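 Mouse Ba/F3 cells carrying P210-BCR-ABL1, CRISPR/Cas9-edited at runx1 exon 4 or edited-control clones, were screened against a 528-compound library on pre-printed 384-well plates. Each compound ran at five concentrations spanning a 10,000-fold range, with 10,000 cells per well in RPMI with 10% FBS for 72 h at 37 °C and 5% CO2. CellTiter-Glo luminescence was scaled between vehicle and positive-control wells. A drug sensitivity score summarised each dose-response, averaged over two replicates.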

[10] = test system: Ba/F3 P210-BCR-ABL1 RUNX1-/- (mouse)
Method in brief: as §2

[11] = test system: Ba/F3 P210-BCR-ABL1 RUNX1-/mut (mouse)
Method in brief: as §2

SMILES | drug sensitivity score [1] | drug sensitivity score [2] | drug sensitivity score [3] | drug sensitivity score [4] | drug sensitivity score [5] | drug sensitivity score [6] | drug sensitivity score [7] | drug sensitivity score [8] | drug sensitivity score [9] | drug sensitivity score [10] | drug sensitivity score [11]
CN[C@@H]1C[C@H]2O[C@@](C)([C@@H]1OC)n1c3ccccc3c3c4c(c5c6ccccc6n2c5c31)C(=O)N[C@H]4O [UCN-01] | 17.3 | 9.93 | 2.27 | 16.1 | 17.3 | 29.7 | 30.1 | 3.61 | 17.1 ± 0.49 | 28.2 ± 1.4 | 26.9 ± 2.3
S=c1[nH]cnc2nc[nH]c12 [Mercaptopurine] | 0 | 0 | 0 | 0 | 0 | 2.9 | 0 | 0 | 6.25 ± 0.78 | 9.2 ± 0.99 | 3.65 ± 0.35
NC(=O)NO [Hydroxyurea] | 0 | 0 | 0 | 0 | 0 | 0.5 | 0.3 | 0 | 8.2 ± 0.42 | 12.2 ± 2 | 11.9 ± 5.4
CC(C)(C)c1cc(NC(=O)Nc2ccc(-c3cn4c(n3)sc3cc(OCCN5CCOCC5)ccc34)cc2)no1 [Quizartinib] | 4.6 | 0 | 0 | 0 | 0.0314 | 3.5 | 0.6 | 3.04 | 0.25 ± 0.071 | 1.6 ± 1.3 | 2.6 ± 0.14
CO[C@H]1C[C@@H]2CC[C@@H](C)[C@@](O)(O2)C(=O)C(=O)N2CCCC[C@H]2C(=O)O[C@H]([C@H](C)C[C@@H]2CC[C@@H](OC(=O)C(C)(CO)CO)[C@H](OC)C2)CC(=O)[C@H](C)/C=C(\C)[C@@H](O)[C@@H](OC)C(=O)[C@H](C)C[C@H](C)/C=C/C=C/C=C/1C [Temsirolimus] | 4.6 | 0 | 2.45 | 5.72 | 13.4 | 6.2 | 19.1 | 1.35 | 0 | 13.8 ± 1.8 | 14.6 ± 6.3
CC1(C)CCC(c2ccc(Cl)cc2)=C(CN2CCN(c3ccc(C(=O)NS(=O)(=O)c4ccc(N[C@H](CCN5CCOCC5)CSc5ccccc5)c(S(=O)(=O)C(F)(F)F)c4)cc3)CC2)C1 [Navitoclax] | 31.2 | 18.4 | 20.3 | 20 | 28.1 | 24.9 | 11.4 | 15.5 | 7.05 ± 0.78 | 1.55 ± 1.3 | 4.45 ± 4
CC(=O)O[C@@]12CO[C@@H]1C[C@H](O)[C@@]1(C)C(=O)[C@H](O)C3=C(C)[C@@H](OC(=O)[C@H](O)[C@@H](NC(=O)OC(C)(C)C)c4ccccc4)C[C@@](O)([C@@H](OC(=O)c4ccccc4)[C@H]21)C3(C)C [Docetaxel] | 3.3 | 3.63 | 7.96 | 17.1 | 21.3 | 0 | 25 | 0 | 17.8 ± 0.92 | 31.55 ± 0.21 | 27.15 ± 0.071
